Several values for one entry are separate records, joined by “and”; a condition that tells them apart may be missing. Identical values can stand only once.
Experiments:
[1] = test system: TNF-α production in PBMCs; assay: Inhibition of TNF-α production in PBMCs; format: cell-based; conditions: PBMC
Source text: The test methods were as described in WO 03/080049; Muller et al., J. Med. Chem., 1996, 39:3238; and Muller et al., Bioorg. Med. Chem. Lett., 1999, 9:1625-30.

[2] = Psoriasis (PSOR) Phase 3 Data Pool: weight change; format: in vivo, human; conditions: 30 mg BID; for Weight % Change Category 0%, n (%) / Weight % Change Category <−20%, n (%) / Weight % Change Category >0% to ≦5%, n (%) / Weight % Change Category >5% to ≦10%, n (%) / Weight % Change Category >10% to ≦20%, n (%) / Weight % Change Category >20%, n (%) / Weight % Change Category ≧−5% to <0%, n (%) / Weight % Change Category ≧−10% to <−5%, n (%) / Weight % Change Category ≧−20% to <−10%, n (%): Subjects as Treated; for observed weight loss of greater than 10%, subjects n (%): subjects as treated
Source text: Apremilast has shown benefit of weight loss in both Phase 2 and Phase 3 Psoriatic Arthritis (PSA) and Psoriasis (PSOR) trials.

PDE6 = target: T1, PDE6 (Bos taurus, UniProt P11541+P23439); assay: PDE6 enzyme assay; format: biochemical
T1 sequence (P11541 1-859): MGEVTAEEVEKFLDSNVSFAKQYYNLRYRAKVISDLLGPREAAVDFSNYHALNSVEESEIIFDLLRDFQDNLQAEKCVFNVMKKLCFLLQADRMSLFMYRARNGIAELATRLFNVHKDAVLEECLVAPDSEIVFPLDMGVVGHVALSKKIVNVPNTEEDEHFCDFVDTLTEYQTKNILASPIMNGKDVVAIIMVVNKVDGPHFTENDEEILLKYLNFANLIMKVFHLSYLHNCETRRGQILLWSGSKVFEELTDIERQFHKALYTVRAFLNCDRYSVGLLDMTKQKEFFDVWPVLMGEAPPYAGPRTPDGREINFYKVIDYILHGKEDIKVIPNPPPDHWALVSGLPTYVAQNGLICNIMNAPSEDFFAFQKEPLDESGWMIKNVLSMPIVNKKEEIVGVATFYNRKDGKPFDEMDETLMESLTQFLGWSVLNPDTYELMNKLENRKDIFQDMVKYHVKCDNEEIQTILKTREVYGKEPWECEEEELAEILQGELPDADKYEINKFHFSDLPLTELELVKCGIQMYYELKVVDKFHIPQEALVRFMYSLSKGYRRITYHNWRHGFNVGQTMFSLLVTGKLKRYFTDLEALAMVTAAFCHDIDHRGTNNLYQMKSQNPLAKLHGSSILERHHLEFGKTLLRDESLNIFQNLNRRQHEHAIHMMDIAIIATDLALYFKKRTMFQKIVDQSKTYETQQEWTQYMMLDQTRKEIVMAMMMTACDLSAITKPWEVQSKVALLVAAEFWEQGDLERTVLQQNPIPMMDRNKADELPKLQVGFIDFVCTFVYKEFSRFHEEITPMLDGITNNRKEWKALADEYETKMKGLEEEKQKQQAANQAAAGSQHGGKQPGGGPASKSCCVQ
T1 sequence (P23439 1-853): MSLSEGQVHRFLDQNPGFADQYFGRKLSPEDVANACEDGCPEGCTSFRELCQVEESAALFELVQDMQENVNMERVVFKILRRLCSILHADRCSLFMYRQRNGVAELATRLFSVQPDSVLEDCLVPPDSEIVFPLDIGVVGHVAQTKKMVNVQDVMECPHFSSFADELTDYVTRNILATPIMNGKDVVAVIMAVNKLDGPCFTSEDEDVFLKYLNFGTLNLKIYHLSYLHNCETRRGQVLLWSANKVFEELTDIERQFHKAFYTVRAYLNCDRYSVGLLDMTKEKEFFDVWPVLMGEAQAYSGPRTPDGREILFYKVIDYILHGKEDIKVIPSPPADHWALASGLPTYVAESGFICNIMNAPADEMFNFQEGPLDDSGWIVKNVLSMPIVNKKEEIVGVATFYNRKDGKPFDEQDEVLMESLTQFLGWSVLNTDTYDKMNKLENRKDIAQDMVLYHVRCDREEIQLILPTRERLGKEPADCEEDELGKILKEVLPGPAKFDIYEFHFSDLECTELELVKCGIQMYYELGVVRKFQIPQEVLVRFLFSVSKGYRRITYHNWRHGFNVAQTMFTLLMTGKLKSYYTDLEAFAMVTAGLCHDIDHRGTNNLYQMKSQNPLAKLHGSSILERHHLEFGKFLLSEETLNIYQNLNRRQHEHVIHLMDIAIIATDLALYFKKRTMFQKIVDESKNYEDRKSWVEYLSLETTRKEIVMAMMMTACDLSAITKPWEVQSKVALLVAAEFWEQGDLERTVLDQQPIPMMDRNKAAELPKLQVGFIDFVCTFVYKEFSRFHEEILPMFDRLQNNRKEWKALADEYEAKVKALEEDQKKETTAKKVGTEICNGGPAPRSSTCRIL
Description: PDE1, 2, 3 and 5 enzyme assays were prepared as described by Hidaka and Asano. Biochem. Biophys. Acta., 1976, 429:485; see also Nicholsen et al., Trends Pharmaco. Sci., 1991, 12:19. The PDE6 enzyme assay was prepared according to Baehr et al., J. Biol. Chem., 1979, 254:11669 and Gillespie et al., Mol. Pharm., 1989, 36: 773. The PDE7 enzyme assay was prepared according to Bloom and Beavo. Proc. Natl. Acad. Sci. USA, 1996, 93:14188-92.

[3] = Apremilast-exposure Period, m = 1133
[4] = End of Period (APR, apremilast exposure), Subjects as Initially Treated at Week 0
[5] = End of Period (PBC), Subjects as Initially Treated at Week 0
[6] = End of Period (apremilast exposure), Apremilast Subjects as Treated
[7] = Week 52, Apremilast Subjects as Treated
[8] = Week 78, Apremilast Subjects as Treated

With `CCOc1cc([C@@H](CS(C)(=O)=O)N2C(=O)c3cccc(NC(C)=O)c3C2=O)ccc1OC` [Apremilast, (+)-2-[1-(3-ethoxy-4-methoxyphenyl)-2-methylsulfonylethyl]-4-acetylaminoisoindoline-1,3-dione] the IC50 [1] was 77 nM, the “weight decrease reported, subjects n (%)” value [2] was 18 (1.5%) n (%) and the “Weight % Change Category 0%, n (%)” value [2, 3] was 72 (6.4) n (%). The “Weight % Change Category <−20%, n (%)” value [2, 3] was 9 (0.8) n (%), the “Weight % Change Category >0% to ≦5%, n (%)” value [2, 3] was 283 (25.0) n (%) and the “Weight % Change Category >5% to ≦10%, n (%)” value [2, 3] was 61 (5.4) n (%). The “Weight % Change Category >10% to ≦20%, n (%)” value [2, 3] was 19 (1.7) n (%), the “Weight % Change Category >20%, n (%)” value [2, 3] was 1 (0.1) n (%) and the “Weight % Change Category ≧−5% to <0%, n (%)” value [2, 3] was 470 (41.5) n (%). For the same compound, the “Weight % Change Category ≧−10% to <−5%, n (%)” value [2, 3] was 162 (14.3) n (%), the “Weight % Change Category ≧−20% to <−10%, n (%)” value [2, 3] was 56 (4.9) n (%) and the “observed weight loss of greater than 10%, subjects n (%)” value ([2]; Apremilast-exposure Period) was 65(5.7%) n (%). For the same compound, the “Change From Baseline (kg) Median (Min, Max)” value [2, 4] was −1.00 (−39.4, 22.3) kg, the “Weight, kg End of Period Mean ± SD” value [2, 4] was 91.05 ± 21.694 kg and the “Change From Baseline (kg) Mean ± SD” value ([2]; End of Period (APR, apremilast exposure), Subjects as Initially Treated at Week 0, listed as APR) was -1.67 kg and -1.67 ± 5.437 kg. The “Change From Baseline (kg) Median (Min, Max)” value [2, 5] was −1.00 (−34.9, 28.0) kg, the “Weight, kg End of Period Mean ± SD” value [2, 5] was 91.35 ± 21.673 kg and the “Change From Baseline (kg) Mean ± SD” value ([2]; End of Period (PBC), Subjects as Initially Treated at Week 0, listed as APR) was -1.45 kg and -1.45 ± 3.891 kg. For the same compound, the “Change From Baseline (kg) Mean ± SD” value [2, 6] was -1.76 ± 5.344 kg, the “Change From Baseline (kg) Median (Min, Max)” value [2, 6] was −1.10 (−39.4, 22.3) kg and the “Weight, kg Time Point Mean ± SD” value [2, 6] was 90.72 ± 21.669 kg. For the same compound, the “Change From Baseline (kg) Median (Min, Max)” value [2, 7] was −1.40 (−39.0, 15.6) kg, the “Weight, kg Time Point Mean ± SD” value [2, 7] was 90.98 ± 22.291 kg and the “Change From Baseline (kg) Mean ± SD” value ([2]; Week 52, Apremilast Subjects as Treated, listed as APR) was -1.99 kg and -1.99 ± 5.640 kg. For the same compound, the “Change From Baseline (kg) Median (Min, Max)” value [2, 8] was −2.30 (−28.0, 14.9) kg, the “Weight, kg Time Point Mean ± SD” value [2, 8] was 89.72 ± 22.231 kg and the “Change From Baseline (kg) Mean ± SD” value ([2]; Week 78, Apremilast Subjects as Treated, listed as APR) was -2.72 kg and -2.72 ± 5.792 kg. The “percentage of subjects with weight change of >−10% to <−5%” value ([2]; Weeks 0-16) was 11.7%, the “Weight % Change Category 0%, n (%)” value ([2]; Weeks 0-16, m = 1127) was 108 (9.6) n (%) and the “Weight % Change Category <−20%, n (%)” value ([2]; Weeks 0-16, m = 1127) was 2 (0.2) n (%). The “Weight % Change Category >0% to ≦5%, n (%)” value ([2]; Weeks 0-16, m = 1127) was 277 (24.6) n (%), the “Weight % Change Category >5% to ≦10%, n (%)” value ([2]; Weeks 0-16, m = 1127) was 24 (2.1) n (%) and the “Weight % Change Category >10% to ≦20%, n (%)” value ([2]; Weeks 0-16, m = 1127) was 6 (0.5) n (%). For the same compound, the “Weight % Change Category >20%, n (%)” value ([2]; Weeks 0-16, m = 1127) was 1 (0.1) n (%), the “Weight % Change Category ≧−5% to <0%, n (%)” value ([2]; Weeks 0-16, m = 1127) was 557 (49.4) n (%) and the “Weight % Change Category ≧−10% to <−5%, n (%)” value ([2]; Weeks 0-16, m = 1127) was 132 (11.7) n (%). The “Weight % Change Category ≧−20% to <−10%, n (%)” value ([2]; Weeks 0-16, m = 1127) was 20 (1.8) n (%), the “observed weight loss of greater than 10%, subjects n (%)” value ([2]; Weeks 0 to 16) was 22 (2.0%) n (%) and the “body weight of the majority of subjects” value ([2]; regardless of duration of exposure) was “maintained their body weight within 0% and 5% of baseline”. For the same compound, the inhibition at 10 µM (PDE6) was -6%.

Source: patent publication US20150209327A1, “METHODS FOR THE TREATMENT OF OBESITY USING APREMILAST” (Celgene Corporation, priority 2014, published 2015)
